Source: US8129123B2, “Methods for assessing atherogenesis by determining oxidized phospholipid to apolipoprotein B ratios” (The Regents of the University of California, priority 2004, dated 2012)
Where two headings read alike, the source gives them in different places.

Tests used:
[1] = test system: LDL cholesterol; experiment: Plasma LDL cholesterol in MIRACL patients; assay type: in vivo, human
Method: The […] study design was previously published. Briefly, the study recruited 3086 patients with unstable angina or non-Q-wave acute myocardial infarction between 24-96 hours after hospital admission at 122 centers in 19 countries. Patients were randomly assigned to double-blind treatment with atorvastatin 80 mg/day or placebo for 16 weeks. The primary efficacy measure was the time to first occurrence of death, nonfatal acute myocardial infarction, cardiac arrest with resuscitation, or worsening angina with new objective evidence of ischemia and requiring emergency re-hospitalization. 2739 patients completed the entire 16 week follow-up period, of whom 2442 had baseline blood samples and 2341 had baseline and Week 16 blood samples available for analysis. Blood was collected in EDTA and stored at -70° C. until analysis. Patients were analyzed on an intention-to-treat basis.

[2] = entire MIRACL population, 16 weeks; cited from earlier work
[3] = test system: MDA-LDL autoantibodies; experiment: Autoantibodies to MDA-LDL (IgG and IgM) chemiluminescent ELISA in plasma; assay type: in vivo, human
Method: (§1) The MIRACL study design was previously published. Briefly, the study recruited 3086 patients with unstable angina or non-Q-wave acute myocardial infarction between 24-96 hours after hospital admission at 122 centers in 19 countries. Patients were randomly assigned to double-blind treatment with atorvastatin 80 mg/day or placebo for 16 weeks. The primary efficacy measure was the time to first occurrence of death, nonfatal acute myocardial infarction, cardiac arrest with resuscitation, or worsening angina with new objective evidence of ischemia and requiring emergency re-hospitalization. 2739 patients completed the entire 16 week follow-up period, of whom 2442 had baseline blood samples and 2341 had baseline and Week 16 blood samples available for analysis. Blood was collected in EDTA and stored at −70° C. until analysis. Patients were analyzed on an intention-to-treat basis.
Chemiluminescent ELISA was used to measure OxLDL markers (FIG. 1A-1C). […] Each sample was assayed in triplicate and data are expressed as relative light units (RLU) in 100 milliseconds. […]
(§2) Plasma titers of IgG and IgM apoB-IC and malondialdehyde (MDA-LDL) (1:200 plasma dilution) autoantibodies and apoB-IC were measured as previously described.
(§3) Since the baseline and Week 16 distributions of the OxLDL markers were positively skewed, log-transformed values were used in the statistical models and analyses and antilog-transformed for descriptive statistics yielding geometric means and 95% confidence intervals (CI) for baseline, Week 16 and percent change from baseline to Week 16. […] For each marker, the logistic regression model included terms for log-transformed marker and randomized treatment assignment; odds ratios were expressed as the relative odds for each one unit increase in the log-transformed marker. Pearson correlations were calculated to summarize the relationship between OxPL/apoB and Lp(a) at baseline and at Week 16. […]

[4] = MIRACL trial: primary efficacy measure (recurrent ischemic events) over 16 weeks; assay type: in vivo, human; settings: 2442 patients with baseline data, 16-week follow-up
Method: (§4) The MIRACL study design was previously published. Briefly, the study recruited 3086 patients with unstable angina or non-Q-wave acute myocardial infarction between 24-96 hours after hospital admission at 122 centers in 19 countries. Patients were randomly assigned to double-blind treatment with atorvastatin 80 mg/day or placebo for 16 weeks. The primary efficacy measure was the time to first occurrence of death, nonfatal acute myocardial infarction, cardiac arrest with resuscitation, or worsening angina with new objective evidence of ischemia and requiring emergency re-hospitalization. […] Patients were analyzed on an intention-to-treat basis.
as §3

[5] = test system: apoB-100 immune complexes; experiment: Apolipoprotein B-100 immune complexes (IC/apoB and Total apoB-IC, IgG and IgM) chemiluminescent ELISA in plasma; assay type: in vivo, human
Method: as §1
(§5) Chemiluminescent ELISA was used to measure OxLDL markers (FIG. 1A-1C). All samples for a given assay were run in a single assay and internal controls consisting of high and low standard plasma samples were included to detect potential variations between microtitration plates. Each sample was assayed in triplicate and data are expressed as relative light units (RLU) in 100 milliseconds. The intra-assay coefficients of variation for all assays were 6-10%.
(§6) The data for OxLDL-E06 and apoB-IC are presented in two ways: 1) as OxPL/apoB and IC/apoB, which specifically quantifies the content of OxPL and IC, respectively, on each captured apoB-100 particle, and 2) as Total apoB-OxPL and Total apoB-IC, which reflects the OxPL and IC content on all apoB-100 containing particles in plasma, by multiplying the plasma “OxPL/apoB” and “IC/apoB” value by the plasma apoB-100 levels measured independently as noted below.
as §2
Since the baseline and Week 16 distributions of the OxLDL markers were positively skewed, log-transformed values were used in the statistical models and analyses and antilog-transformed for descriptive statistics yielding geometric means and 95% confidence intervals (CI) for baseline, Week 16 and percent change from baseline to Week 16. Inferential analyses included paired-sample t-tests for within treatment group differences in markers at baseline versus Week 16, and independent-sample t-tests for between treatment group differences in markers at Week 16 and between treatment group differences in absolute change in log-transformed markers from baseline to Week 16. Logistic regression models were constructed to summarize the relationships between baseline OxLDL values and the primary efficacy measure of the trial. For each marker, the logistic regression model included terms for log-transformed marker and randomized treatment assignment; odds ratios were expressed as the relative odds for each one unit increase in the log-transformed marker. Pearson correlations were calculated to summarize the relationship between OxPL/apoB and Lp(a) at baseline and at Week 16. Statistical significance was defined as P<0.05.

[6] = test system: ApoB-100; experiment: Plasma apoB-100 level (Behring kit); assay type: in vivo, human
Method: as §4
(§7) Plasma Lp(a) levels were measured by a chemiluminescent ELISA with monoclonal antibody LPA4, as previously described. […] ApoB-100 levels were measured by a commercially available kit (Behring) and CRP levels as previously described.
(§8) Since the baseline and Week 16 distributions of the OxLDL markers were positively skewed, log-transformed values were used in the statistical models and analyses and antilog-transformed for descriptive statistics yielding geometric means and 95% confidence intervals (CI) for baseline, Week 16 and percent change from baseline to Week 16. […] Pearson correlations were calculated to summarize the relationship between OxPL/apoB and Lp(a) at baseline and at Week 16. […]

[7] = test system: Lp(a); experiment: Plasma Lp(a) level, chemiluminescent ELISA with antibody LPA4; assay type: in vivo, human
Method: as §4, §7, §8

[8] = test system: LDL cholesterol; settings: PROVE-IT, two years' treatment, 80 mg atorvastatin versus 40 mg pravastatin; cited from earlier work
[9] = test system: oxidized phospholipids (OxPL) on apoB-100 particles; experiment: OxLDL-E06 chemiluminescent ELISA (OxPL/apoB and Total apoB-OxPL) in plasma; assay type: in vivo, human
Method: as §1, §5
OxLDL-E06 is a measure of the content of oxidized phospholipids (OxPL) per apoB-100 particle using the murine monoclonal antibody E06, which specifically binds to the phosphorylcholine head group of oxidized but not native phospholipids. A 1:50 dilution of plasma in phosphate-buffered saline (PBS) is added to microtiter wells coated with the monoclonal antibody MB47 (5 μg/ml), which specifically binds apoB-100 particles. Under these conditions, a saturating amount of apoB-100 is added to each well and consequently an equal number of apoB-100 particles are captured in each well for all assays. The content of OxPL per apoB-100 is then determined with biotinylated E06. In a previous study we directly measured the amount of apoB-100 bound in each well by the degree of binding of a biotinylated anti-apoB-100 antibody, and compared the OxPL RLU values alone to the ratio of OxPL RLU/apoB-100 RLU and found a correlation of r^2=0.99 (n=1500 samples). Therefore, we arbitrarily assigned the apoB-100 RLU value in the denominator as 1 and report the OxPL/apoB values as OxPL RLU counts only. Note that by design, this assay normalizes the OxPL content per apoB-100 particle and is therefore independent of plasma apoB-100 (and thus LDL-cholesterol) levels.
as §6
Since the baseline and Week 16 distributions of the OxLDL markers were positively skewed, log-transformed values were used in the statistical models and analyses and antilog-transformed for descriptive statistics yielding geometric means and 95% confidence intervals (CI) for baseline, Week 16 and percent change from baseline to Week 16. […]

[10] = Week 16, atorvastatin 80 mg/day, ACS patients, geometric mean

CC(C)c1c(C(=O)Nc2ccccc2)c(-c2ccccc2)c(-c2ccc(F)cc2)n1CC[C@@H](O)C[C@@H](O)CC(=O)O [atorvastatin]
LDL cholesterol level after treatment ([1]; Week 16 (from 124±34 at baseline), 80 mg/day): 72 ± 35 mg/dL | reduction in LDL cholesterol ([1]; baseline to Week 16, 80 mg/day): 42% | patients with a primary endpoint event [2]: 14.6% | Autoantibodies to MDA-LDL IgG mean level [3, 10]: 4922 RLU | Autoantibodies to MDA-LDL IgM mean level [3, 10]: 1088 RLU | IgG and IgM MDA-LDL autoantibody level increase ([3]; baseline to Week 16, range stated for both groups (atorvastatin and placebo)): 9.1-14.4% | patients with a primary endpoint event [4]: 10.7% | IC/apoB IgG mean level [5, 10]: 9048 RLU | IC/apoB IgM mean level [5, 10]: 3933 RLU | Total apoB-IC IgG mean level [5, 10]: 749 (RLU · mg/dl) × 10^3 | Total apoB-IC IgM mean level [5, 10]: 325 (RLU · mg/dl) × 10^3 | IgG IC/apoB relative increase from baseline ([5]; baseline to Week 16, 80 mg/day): 9.6% | IgM IC/apoB relative increase from baseline ([5]; baseline to Week 16, 80 mg/day): 15.4% | Total apoB-IC IgG percent change from baseline ([5]; baseline to Week 16, 80 mg/day): −29.5% | Total apoB-IC IgM percent change from baseline ([5]; baseline to Week 16, 80 mg/day): −25.7% | ApoB-100 mean level [6, 10]: 87 mg/dL | apoB-100 percent change from baseline ([6]; baseline to Week 16, 80 mg/day): −33.0% | Lp(a) mean level [7, 10]: 13.0 mg/dL | Lp(a) relative increase from baseline ([7]; baseline to Week 16, 80 mg/day): 8.8% | median LDL cholesterol level [8]: 62 mg/dL | OxPL/apoB mean level [9, 10]: 11048 RLU | Total apoB-OxPL mean level [9, 10]: 912 (RLU · mg/dl) × 10^3 | OxPL/apoB relative increase from baseline ([9]; baseline to Week 16, 80 mg/day): 9.5% | Total apoB-OxPL percent change from baseline ([9]; baseline to Week 16, 80 mg/day): −29.7% | OxPL enrichment of apoB particles (OxPL/apoB), absolute difference compared to placebo ([9]; baseline to Week 16 change, atorvastatin vs placebo): 13.4%
